Measurements reported in patent US11363816B2, “4-amino-6-(heterocyclic)picolinates and 6-amino-2-(heterocyclic)pyramidine-4-carboxylates and their use as herbicides” (Dow AgroSciences LLC, priority 2017, dated 2022).

Key:
Format in all cases: in vivo
[1] = system: MATIN=Matricaria inodora (scentless mayweed); assay: Postemergent herbicidal activity in the greenhouse; details: 21-28 DAAA
Method: (§1) Seeds of the desired test plant species were planted in Sun Gro MetroMix® 306 planting mixture, which typically has a pH of 6.0 to 6.8 and an organic matter content of about 30 percent, in plastic pots with a surface area of 103.2 square centimeters (cm^2). When required to ensure good germination and healthy plants, a fungicide treatment and/or other chemical or physical treatment was applied. The plants were grown for 7-36 days (d) in a greenhouse with an approximate 14 hour (h) photoperiod which was maintained at about 18° C. during the day and 17° C. during the night. Nutrients and water were added on a regular basis and supplemental lighting was provided with overhead metal halide 1000-Watt lamps as necessary. The plants were employed for testing when they reached the second or third true leaf stage.
(§2) An aliquot of formulated Compound 5 (100 grams acid equivalent per liter (g ae/L); emusifiable concentrate (EC)), Compound 6 (100 g ae/L; EC) or Compound 7 (100 g ae/L; EC) was placed in a 25 mL glass vial and diluted in a volume of 1.25% (volume per volume (v/v)) aqueous Actirob B esterified rapeseed oil to obtain a stock solution. The concentrated stock solutions were diluted with an aqueous mixture of 1.25% v/v of aqueous Actirob B esterified rapeseed oil to provide the appropriate application rates. Compound requirements are based upon a 12 mL application volume at a rate of 187 liters per hectare (L/ha). Formulated compounds were applied to the plant material with an overhead Mandel track sprayer equipped with 8002E nozzles calibrated to deliver 187 L/ha over an application area of 0.503 square meters (m^2) at a spray height of 18 inches ([…]) above average plant canopy. Control plants were sprayed in the same manner with the solvent blank.
(§3) The treated plants and control plants were placed in a greenhouse as described above and watered by subirrigation to prevent washoff of the test compounds. After 20-22 d, the condition of the test plants as compared with that of the control plants was determined visually and scored on a scale of 0 to 100 percent where 0 corresponds to no injury and 100 corresponds to complete kill. […]
(§4) The values reported are means.

[2] = system: KCHSC=Kochia scoparia (L.) Schrad. (Kochia); assay: Postemergent herbicidal activity in the greenhouse; details: 21-28 DAAA
Method: as §1, §2, §3, §4

[3] = system: SINAR=Sinapis arvensis L. (wild mustard); assay: Postemergent herbicidal activity in the greenhouse; details: 21-28 DAAA
Method: as §1, §2, §3, §4

[4] = system: POLCO=Polygonum convolvulus L. (wild buckwheat); assay: Postemergent herbicidal activity in the greenhouse; details: 21-28 DAAA
Method: as §1, §2, §3, §4

[5] = system: CIRAR=Cirsium arvense (L.) Scop. (Canada thistle); assay: Postemergent herbicidal activity in the greenhouse; details: 21-28 DAAA
Method: as §1, §2, §3, §4

[6] = system: CHEAL=Chenopodium album L. (common lambsquarters); assay: Postemergent herbicidal activity in the greenhouse; details: 21-28 DAAA
Method: as §1, §2, §3, §4

[7] = system: VERSS=Veronica spp (speedwell); assay: Postemergent herbicidal activity in the greenhouse; details: 21-28 DAAA
Method: as §1, §2, §3, §4

[8] = system: Res-PAPRH=Papaver rhoeas L. (common poppy) resistant to tribenuron and thifensulfuron (ALS) and 2,4-D; assay: Postemergent herbicidal activity in the greenhouse; details: 21-28 DAAA
Method: as §1, §2, §3, §4

[9] = system: VERHE=Veronica hederifolia (ivyleaved speedwell); assay: Postemergence field trial, Banares, Spain
Method: (§5) Field trials were established in Spain (Banares and Granon) and Germany (Bielefeld) to evaluate the efficacy of Compound 5, Compound 6, and Compound 7. Trials were designed as randomized complete blocks with three to four replicates. Trials were established in winter wheat with natural weed population with plot sizes of 2-2.5 meters (m) by 6-8 m (width×length). The crops were grown using normal cultural practices for fertilization, seeding, and maintenance to ensure good growth of the crop. All herbicide treatments were applied post-emergence with applications made to the crops at the BBCH 21 to 23 growth stage. Herbicides were applied with backpack or bicycle sprayers using air as a propellant. The sprayers utilized flat fan air-induction spray nozzles calibrated to deliver a uniform spray pattern that provided thorough coverage of the foliage using a 200 L/ha spray volume. All treatments were applied with methylated seed oil (MSO) at 1.25% v/v. Phytotoxicity to the weeds was assessed visually at several intervals after application as percent overall control, compared to an untreated control plot. In general, three to four replicates were assessed for each treatment. All treatment results are an average of three or four replicates. Compound 5, Compound 6, and Compound 7 were applied as emulsifiable concentrate (EC) formulations at 100 g ae/L EC, respectively.

[10] = system: PAPRH=Papaver rhoeas L. (common poppy); assay: Postemergence field trial, Banares, Spain
Method: as §5

[11] = system: FUMOF=Fumaria officinalis (common fumitory); assay: Postemergence field trial, Banares, Spain
Method: as §5

[12] = system: STEME=Stellaria media (L.) Vill. (common chickweed); assay: Postemergence field trial, Nisku, Alberta, Canada
Method: Field trials were established in Canada (in Ellerslie, Alberta; Nisku, Alberta and Hanley, Saskatchewan) to evaluate the efficacy of Compound 5, Compound 6, and Compound 7. Trials were designed as randomized complete blocks with four replicates. Trials were established in spring wheat with natural weed population with plot sizes of 2-3 meters (m) by 8-10 m (width×length). The crops were grown using normal cultural practices for fertilization, seeding, and maintenance to ensure good growth of the crop.
All herbicide treatments were applied post-emergence with applications made to the crops at BBCH (Phenological development stages of a plant) 14 to 22 growth stage. Herbicides were applied with backpack or bicycle sprayers using carbon dioxide (CO2) as a propellant. The sprayers utilized flat fan air-induction spray nozzles calibrated to deliver a uniform spray pattern that provided thorough coverage of the foliage using a 100 L/ha spray volume. All treatments were applied with methylated seed oil (MSO) at 1.25% v/v. Phytotoxicity to the weeds was assessed visually at several intervals after application as percent overall control, compared to an untreated control plot. In general, four replicates were assessed for each treatment. All treatment results are an average of four replicates.
Compound 5, Compound 6 and Compound 7 were applied as emulsifiable concentrate (EC) formulations at 100 g ae/L EC, respectively.

Row | Structure (SMILES) | Percent (%) Visual Control MATIN ([1]; 10 g ae/ha) [%] | Percent (%) Visual Control MATIN ([1]; 20 g ae/ha) [%] | Percent (%) Visual Control KCHSC ([2]; 10 g ae/ha) [%] | Percent (%) Visual Control KCHSC ([2]; 20 g ae/ha) [%] | Percent (%) Visual Control SINAR ([3]; 10 g ae/ha) [%] | Percent (%) Visual Control SINAR ([3]; 20 g ae/ha) [%] | Percent (%) Visual Control POLCO ([4]; 10 g ae/ha) [%] | Percent (%) Visual Control POLCO ([4]; 20 g ae/ha) [%] | Percent (%) Visual Control CIRAR ([5]; 10 g ae/ha) [%] | Percent (%) Visual Control CIRAR ([5]; 20 g ae/ha) [%] | Percent (%) Visual Control CHEAL ([6]; 10 g ae/ha) [%] | Percent (%) Visual Control CHEAL ([6]; 20 g ae/ha) [%] | Percent (%) Visual Control VERSS ([7]; 10 g ae/ha) [%] | Percent (%) Visual Control VERSS ([7]; 20 g ae/ha) [%] | Percent (%) Visual Control Res-PAPRH ([8]; 10 g ae/ha) [%] | Percent (%) Visual Control Res-PAPRH ([8]; 20 g ae/ha) [%] | Percent (%) Visual Control VERHE 66DAAA ([9]; 5 g ae/ha) [%] | Percent (%) Visual Control VERHE 66DAAA ([9]; 10 g ae/ha) [%] | Percent (%) Visual Control VERHE 66DAAA ([9]; 20 g ae/ha) [%] | Percent (%) Visual Control PAPRH 66DAAA ([10]; 5 g ae/ha) [%] | further results
1 | C#CCOC(=O)c1nc(-c2ccc3cc[nH]c3c2F)c(F)c(N)c1Cl [Compound 5, prop-2-yn-1-yl 4-amino-3-chloro-5-fluoro-6-(7-fluoro-1H-indol-6-yl)picolinate] | 100 | 100 | 76.7 | 82.7 | 89 | 96.7 | 100 | 100 | 56.7 | 58.3 | 97.5 | 100 | 77.5 | 80.8 | 87.5 | 100 | 60 | 77.7 | 91 | 57.7 | Percent (%) Visual Control PAPRH 66DAAA ([10]; 10 g ae/ha): 70%; Percent (%) Visual Control PAPRH 66DAAA ([10]; 20 g ae/ha): 90%; Percent (%) Visual Control FUMOF 83DAAA ([11]; 5 g ae/ha): 41.7%; Percent (%) Visual Control FUMOF 83DAAA ([11]; 10 g ae/ha): 65%; Percent (%) Visual Control FUMOF 83DAAA ([11]; 20 g ae/ha): 93.3%; Percent (%) Visual Control STEME 28DAAA ([12]; 10 g ae/ha): 88%; Percent (%) Visual Control STEME 51DAAA ([12]; 10 g ae/ha): 88.3%; Percent (%) Visual Control STEME 28DAAA ([12]; 20 g ae/ha): 96%; Percent (%) Visual Control STEME 51DAAA ([12]; 20 g ae/ha): 92.5%; Percent (%) Visual Control STEME 28DAAA ([12]; 40 g ae/ha): 99%; Percent (%) Visual Control STEME 51DAAA ([12]; 40 g ae/ha): 93.8%
2 | Nc1c(F)c(-c2ccc3cc[nH]c3c2F)nc(C(=O)OCc2ccccc2)c1Cl [Compound 7, benzyl 4-amino-3-chloro-5-fluoro-6-(7-fluoro-1H-indol-6-yl)picolinate, reference compound] | 100 | 100 | 65 | 73.3 | 90 | 94 | 97.5 | 98.8 | 30 | 46.7 | 92.5 | 95 | 72.5 | 67.5 | 92.5 | 92.5 | 50 | 56 | 70 | 53.3 | Percent (%) Visual Control PAPRH 66DAAA ([10]; 10 g ae/ha): 62.7%; Percent (%) Visual Control PAPRH 66DAAA ([10]; 20 g ae/ha): 75%; Percent (%) Visual Control FUMOF 83DAAA ([11]; 5 g ae/ha): 26.7%; Percent (%) Visual Control FUMOF 83DAAA ([11]; 10 g ae/ha): 45%; Percent (%) Visual Control FUMOF 83DAAA ([11]; 20 g ae/ha): 58.3%; Percent (%) Visual Control STEME 28DAAA ([12]; 10 g ae/ha): 76.7%; Percent (%) Visual Control STEME 51DAAA ([12]; 10 g ae/ha): 76.3%; Percent (%) Visual Control STEME 28DAAA ([12]; 20 g ae/ha): 76.7%; Percent (%) Visual Control STEME 51DAAA ([12]; 20 g ae/ha): 80%; Percent (%) Visual Control STEME 28DAAA ([12]; 40 g ae/ha): 99%; Percent (%) Visual Control STEME 51DAAA ([12]; 40 g ae/ha): 85.8%
3 | N#CCOC(=O)c1nc(-c2ccc3cc[nH]c3c2F)c(F)c(N)c1Cl [Compound 6, cyanomethyl 4-amino-3-chloro-5-fluoro-6-(7-fluoro-1H-indol-6-yl)picolinate] | 98.3 | 100 | 73.3 | 84.3 | 90 | 96 | 98.3 | 100 | 50 | 58.3 | 100 | 100 | 86.3 | 86.5 | 95 | 100 | 60 | 81.7 | 91 | 60 | Percent (%) Visual Control PAPRH 66DAAA ([10]; 10 g ae/ha): 75%; Percent (%) Visual Control PAPRH 66DAAA ([10]; 20 g ae/ha): 91%; Percent (%) Visual Control FUMOF 83DAAA ([11]; 5 g ae/ha): 41.7%; Percent (%) Visual Control FUMOF 83DAAA ([11]; 10 g ae/ha): 69.3%; Percent (%) Visual Control FUMOF 83DAAA ([11]; 20 g ae/ha): 96%; Percent (%) Visual Control STEME 28DAAA ([12]; 10 g ae/ha): 99%; Percent (%) Visual Control STEME 51DAAA ([12]; 10 g ae/ha): 87.5%; Percent (%) Visual Control STEME 28DAAA ([12]; 20 g ae/ha): 96%; Percent (%) Visual Control STEME 51DAAA ([12]; 20 g ae/ha): 87.8%; Percent (%) Visual Control STEME 28DAAA ([12]; 40 g ae/ha): 99%; Percent (%) Visual Control STEME 51DAAA ([12]; 40 g ae/ha): 94.5%
